Assays:
RAW264.7 cells = assay: CCK-8 cell viability of RAW264.7 macrophages at different concentrations of (+)3C-20 (LPS experiment); type: cell-based, mice; settings: RAW264.7 cell viability
Procedure: RAW264.7 cells were inoculated into a 96-well plate at a density of 1×10^5 per well. When the cell density was 70%-80%, the RAW264.7 cells were pretreated with (+)3C-20 ([…]). After 3 h, lipopolysaccharide (LPS, 100 ng/mL) was added into all wells for action for 2 h except for a control group. The expression level of an inflammatory factor TNF-α in a cell supernatant was detected according to an operation instruction of a commercial ELISA kit, and the cell viability at different administration concentrations of (+)3C-20 was determined according to an operation instruction of a CCK-8 kit.

[1] = test system: mice with acute lung injury caused by intratracheal instillation of lipopolysaccharide; assay: Intratracheal LPS acute lung injury: wet/dry ratio, BALF TNF-α, total protein, myeloid cells; type: in vivo, ICR mice
Procedure: Grouping and administration of animals: 50 male ICR mice were randomly divided into 3 groups according to the body weight, including a control group, a model group and a 50 mg/kg (+)3C-20 group. Drug preparation, administration and a modeling method were the same as those in Example 7. After continuous preadministration for 3 days, intratracheal instillation of LPS was performed for modeling 2 h after the last administration. 6 h after the modeling, a part of the mice were directly sacrificed, the whole lungs were taken out and weighed to obtain wet weight, then the whole lungs were dried at 60° C. for 24 h and weighed to obtain dry weight, and the wet-dry weight ratio of each group was calculated by statistics. 6 h after the modeling, the remaining mice were subjected to bronchoalveolar lavage, and then bronchoalveolar lavage fluid (BALF) was collected. A lavage process was as follows: After being sacrificed, the mice were placed faceup to fix the four limbs, the skin of the neck was cut, the trachea was separated and cut at an appropriate position to obtain a small incision, a 16G needle with a flat tip was inserted into the trachea at a depth of 1 cm, the trachea and the needle stem were tied tightly to obtain an indwelling needle, 400 μL of precooled PBS was sucked with a 1 mL syringe and slowly pushed into the trachea, suction was performed for two times, the operations above were repeated, and recovered BALF was combined with a recovery efficiency of 70%-80%. The collected BALF was subjected to centrifugation at 500×g at 4° C. for 5 min, a supernatant was collected, the content level of total protein in the supernatant was determined by a BCA kit, and the expression level of an inflammatory factor TNF-α in the BALF supernatant was detected according to an operation instruction of a commercial ELISA kit.
A bottom precipitate obtained after the centrifugation of the BALF was resuspended with 100 μL of an ACK buffer (Thermo A10492 stomatocytosis agent), evenly blown and subjected to standing for 1 min. Stomatocytosis was stopped with 1 mL of an FACS buffer (PBS containing 1% of FBS), centrifugation was performed at 500×g at 4° C. for 5 min, a supernatant was discarded, 100 μL of an FACS buffer was added, 1 μL of a CD16/CD32 Fc Block antibody (1:100) was added, and incubation was performed in the dark at 4° C. for 30 min. 1 mL of an FACS buffer was added, centrifugation was performed at 500×g at 4° C. for 5 min, a supernatant was discarded, and 100 μL of an FACS buffer was added for resuspension. Various fluorescent dyes (including mCD45-PerCP-Cy5.5, mCD11b-FITC, mF4/80-APC, mLy6C-PE, mLy6G-BV421 and FVS-780) were added at a ratio of 1:300, a single dye tube of each of the fluorescent dyes was prepared according to the above ratio, and incubation was performed in the dark at 4° C. for 30 min. 1 mL of an FACS buffer was added for resuspension, centrifugation was performed at 500×g at 4° C. for 5 min, and a supernatant was discarded. Washing was repeated for one time, centrifugation was performed to remove a supernatant, 500 μL of 1% paraformaldehyde was added for fixing in the dark for 30 min, centrifugation was performed at 500×g at 4° C. for 5 min, and a supernatant was discarded. 200 μL of an FACS buffer was added for resuspension, and a resulting suspension was stored in the dark at 4° C. Before loading on a machine, the stained cell suspension was diluted with an FACS buffer, transferred to a flow tube and detected according to an operation procedure of a CytoFlex flow cytometer. A flow gate strategy was as follows: Gain was first regulated according to each single dye tube, and compensation was properly regulated, where CD45^+, CD11b^+ and F4/80^+ were macrophages, CD45^+, CD11b^+ and Ly6G^+ were neutrophils, and CD45^+, CD11b^+ and Ly6C^+ were monocytes.

[2] = 50 mg/kg i.p. 3 days, 6 h after intratracheal LPS, model group = 100

O=C(CCc1ccc(C(F)(F)F)cc1)O[C@@H]1C(=O)NCCc2c([nH]c3ccccc23)[C@H]1c1ccc(C(F)(F)F)cc1 [(+)-3C-20]
Percentage of CCK-8 in a model group (%) (RAW264.7 cells; 0.1 μM): 108.6 ± 1.49%
Percentage of CCK-8 in a model group (%) (RAW264.7 cells; 0.5 μM): 106.11 ± 2.44%
Percentage of CCK-8 in a model group (%) (RAW264.7 cells; 1 μM): 106.01 ± 1.75%
Percentage of CCK-8 in a model group (%) (RAW264.7 cells; 2 μM): 106.41 ± 3.04%
Percentage of CCK-8 in a model group (%) (RAW264.7 cells; 5 μM): 105.55 ± 1.06%
Percentage of CCK-8 in a model group (%) (RAW264.7 cells; 10 μM): 96.64 ± 1.45%
Percentage of CCK-8 in a model group (%) (RAW264.7 cells; 20 μM): 95.83 ± 2.29%
Level of TNF-α in BALF [1, 2]: 43.31
Level of total protein in BALF [1, 2]: 73.44
Wet/Dry ratio ([1]; 50 mg/kg i.p. 3 days, lung, 6 h after intratracheal LPS): 4.28
Macrophage (%) ([1]; 50 mg/kg i.p., BALF flow cytometry CD45+ CD11b+ F4/80+): 0.82%
Monocyte (%) ([1]; 50 mg/kg i.p., BALF flow cytometry CD45+ CD11b+ Ly6C+): 4.13%
Neutrophil (%) ([1]; 50 mg/kg i.p., BALF flow cytometry CD45+ CD11b+ Ly6G+): 10.47%

From patent US20240300959A1, “BALASUBRAMIDE DERIVATIVE AND USE THEREOF IN PREPARATION OF MEDICINE FOR TREATING ACUTE LUNG INJURY” (Guangdong Pharmaceutical University, priority 2023, published 2024)
